Experimental data as given in PubChem BioAssay (NCI).
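Tested at 5 concentrations; 48 h exposure; 96-well plates; endpoints linearly interpolated, else capped at highest concentration. GI50 is the concentration that inhibits growth by half. The concentration for full growth arrest is given as TGI.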

Experiments:
Assay in all cases: NCI anticancer screen, dose series, 48 h
[1] = system: CAKI-1 renal
[2] = system: HT29 colon
[3] = system: K-562 leukemia
[4] = system: MALME-3M melanoma
[5] = system: NCI-H226 lung
[6] = system: OVCAR-8 ovarian
[7] = system: SF-295 CNS
[8] = system: SK-MEL-2 melanoma
[9] = system: SNB-75 CNS
[10] = system: SR leukemia

Row | Structure (SMILES) | TGI [1] [µM] | TGI [2] [µM] | TGI [3] [µM] | TGI [4] [µM] | TGI [5] [µM] | TGI [6] [µM] | TGI [7] [µM] | TGI [8] [µM] | TGI [9] [µM] | TGI [10] [µM] | GI50 [1] [µM] | GI50 [2] [µM] | GI50 [3] [µM] | GI50 [4] [µM] | GI50 [5] [µM] | GI50 [6] [µM] | GI50 [7] [µM] | GI50 [8] [µM] | GI50 [9] [µM] | GI50 [10] [µM]
1 | CC1CCC2(C(=O)O)CCC3(C)C(=CCC4C5(C)CC(O)C(O)C(C)(CO)C5C(O)CC43C)C2C1C (stereo not given) | > 100 | > 100 | > 100 | > 100 | > 100 | 42.6 | > 100 | 36.6 | 79.7 | > 63.1 |  |  |  |  |  |  |  |  |  | 
2 | COc1cc(OC)cc(-c2ccc(-c3ccc(C(=N)N)o3)o2)c1 | 16.1 | 9.04 | 4.47 | 4.21 | 44.6 | 14 | 4.25 | 5.35 | 13.8 | 4.36 | 4.33 | 2.77 | 1.98 | 2.04 | 22.6 | 3.75 | 2.06 | 2.44 | 2.2 | 1.68
3 | Cc1nc2c(nc1Cl)nc(Oc1ccc(Cl)cc1)c1ccccc12 | > 100 | > 100 | > 100 | > 100 | 79.9 | 68.2 | > 100 | > 100 | > 100 | > 100 |  |  |  |  |  |  |  |  |  | 
4 | COC(=O)C(=O)C(C(=O)C=C(C)C)C(=O)C(=O)Nc1cc(C(F)(F)F)ccc1Cl (stereo not given) | > 100 | > 100 | > 100 | > 100 | > 100 | > 100 | > 100 | > 100 | > 100 | 39.9 |  |  |  |  |  |  |  |  |  | 
5 | O=C(O)CCCCC(CCSCc1ccccc1)SCc1ccccc1 (stereo not given) | > 100 | > 100 | > 100 | > 100 | > 100 | > 100 | > 74.5 | 67.6 | > 100 | > 100 | > 77.5 | 65.3 | 44.5 | 87.7 | > 71 | > 63.6 | 25.8 | 27.5 | > 100 | 36.1
6 | N#C/C(=C1C=C/C(=N/O)C(Br)=C/1)c1ccccc1 | 12.7 | 10.2 | 12.6 | 22.6 | 11.6 | 8.41 | 8.47 | 13.9 | 22.6 | 8.48 | 0.7 | 3.3 | 0.878 | 4.72 | 3.59 | 2.61 | 2.81 | 3.64 | 3.42 | 0.545
7 | Cc1cc(I)cc(CNCCCN2CCSCC2)c1O | 32.7 | 27.8 | 26.1 | 33.9 | 79.8 | 34 | 24.6 | 35.4 | 28.8 | 28.5 | 15.1 | 14 | 8.4 | 17.3 | 24.5 | 17.4 | 11.8 | 18.6 | 13.7 | 10.4
8 | O=C1c2c(c3c4ccccc4n(CCCCCCBr)c3c3[nH]c4ccccc4c23)C(=O)N1O | 9.5 | 3.25 | 10.2 | 7.74 | 16.4 | 10.3 | 9.01 | 5.27 | 16.5 | 4.71 | 2.86 | 1.73 | 2.8 | 2.65 | 3.7 | 3.11 | 2.75 | 2.09 | 3.14 | 1.23
9 | O=c1oc2ccc(F)cc2c(=O)n1-c1ccc(F)cc1F | 6.4 | 49.8 | > 100 | 6.33 | 72.9 | 91.6 | 5.58 | 5.04 | 5.43 | > 100 | 1.98 | 3.91 | 3.11 | 2.25 | 2.82 | 3.39 | 2.33 | 1.98 | 1.58 | 3.69
10 | O=C(O)Cn1ccc(=O)c2ccc([N+](=O)[O-])cc21 | > 100 | > 100 | > 100 | > 100 | > 100 | > 100 | > 100 | > 100 | > 100 | > 100 |  |  |  |  |  |  |  |  |  | 
11 | O=NN(Cc1ccc(Cl)cc1)C(C(=O)O)c1ccccc1 (stereo not given) | > 100 | > 100 | > 100 | > 100 | > 100 | > 100 | > 100 | > 100 | > 100 | > 100 |  |  |  |  |  |  |  |  |  | 
